Patent publication US20240360126A1, “PYRAZOLO[3,4-B]PYRIDINE COMPOUNDS FOR THE TREATMENT OF AUTOIMMUNE DISEASE” (Hoffmann-La Roche Inc., priority 2021, published 2024)

Key:
TLR9 = target: T1, TLR9 (Homo sapiens, UniProt Q9NR96); assay: Human PBMC cell-based assay; parameters: These cells express TLR7, TLR8, or TLR9, and therefore are natural responders to respective ligand stimulation; endogenous in cells; host or cells: human PBMC from healthy donor whole blood; details: CpG ODN 2216 at 1 μM, read-out: hPBMC/TLR9 IC50
T1 sequence (Q9NR96 26-1032): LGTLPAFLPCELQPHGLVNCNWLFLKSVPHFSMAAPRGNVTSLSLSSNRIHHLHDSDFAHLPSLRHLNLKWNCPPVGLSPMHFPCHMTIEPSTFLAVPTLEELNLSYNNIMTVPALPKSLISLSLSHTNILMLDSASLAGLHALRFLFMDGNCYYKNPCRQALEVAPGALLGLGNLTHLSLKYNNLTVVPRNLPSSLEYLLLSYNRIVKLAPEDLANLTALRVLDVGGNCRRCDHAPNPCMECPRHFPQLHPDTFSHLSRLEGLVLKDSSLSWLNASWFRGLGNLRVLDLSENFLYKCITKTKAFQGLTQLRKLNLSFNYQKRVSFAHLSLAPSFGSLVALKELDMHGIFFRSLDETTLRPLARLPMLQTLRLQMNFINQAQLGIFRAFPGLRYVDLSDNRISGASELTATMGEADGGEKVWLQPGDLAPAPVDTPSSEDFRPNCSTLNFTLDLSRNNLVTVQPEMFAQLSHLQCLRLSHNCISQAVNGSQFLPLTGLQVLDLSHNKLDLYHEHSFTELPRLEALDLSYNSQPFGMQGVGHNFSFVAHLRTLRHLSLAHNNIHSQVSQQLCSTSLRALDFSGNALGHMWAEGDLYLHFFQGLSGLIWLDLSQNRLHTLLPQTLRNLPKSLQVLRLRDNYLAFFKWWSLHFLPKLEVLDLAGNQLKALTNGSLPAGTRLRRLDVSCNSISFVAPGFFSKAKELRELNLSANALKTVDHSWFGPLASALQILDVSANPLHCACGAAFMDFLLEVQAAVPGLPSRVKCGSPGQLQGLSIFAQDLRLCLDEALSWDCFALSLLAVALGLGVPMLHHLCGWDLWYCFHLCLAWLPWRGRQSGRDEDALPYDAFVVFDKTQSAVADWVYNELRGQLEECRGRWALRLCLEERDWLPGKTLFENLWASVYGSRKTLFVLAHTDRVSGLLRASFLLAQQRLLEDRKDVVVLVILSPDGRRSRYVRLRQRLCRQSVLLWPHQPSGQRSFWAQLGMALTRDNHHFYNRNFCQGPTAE
Source text: Unlike the HEK reporter cell lines, human peripheral blood mononuclear cell (PBMC) represents primary human immune cells in blood mainly consisting of lymphocytes, monocytes, and dendritic cells. These cells express TLR7, TLR8, or TLR9, and therefore are natural responders to respective ligand stimulation. Upon activation of these TLRs, PBMCs secrete similar cytokines and chemokines in vitro and in vivo, and therefore the in vitro potency of a TLR7/8/9 antagonist in human PBMC is readily translatable to its pharmacodynamics response in vivo.
Human peripheral blood mononuclear cells (PBMC) were isolated from freshly-drawn lithium-heparinized (Lithium Heparin Plus blood Collection tube, BD Vacutainer®) healthy donor whole blood by density gradient (Ficoll-Paque™ PLUS, GE Healthcare life Sciences). Briefly, […] was diluted with 25 mL PBS (without Ca^2+, Mg^2+) in a 50 mL conical tube with porous barrier (Leucosep tube, Greiner bio-one), where 15.5 mL Ficoll-Paque was under laid after spinning. Tubes were centrifuged for 20 minutes at 800×g (1946 rpm) with the brake in the off position, and PBMC were collected from the buffy coat. Cells were then washed twice in PBS, and red blood cells were lysed by suspension in 2 mL (Red Blood Cell Lysis Buffer, Alfa Aesar) for 5-10 minutes at room temperature. After a final wash in PBS, PBMC were resuspended at a final concentration of 2×10^6 cells/mL in RPMI-1640 media with GlutaMAX™ (Gibco) supplemented with 10% Fetal Bovine Serum (Sigma) and plated at 150 μL/well (3×10^5 cells/well) in tissue culture treated round bottom 96-well plates (Corning Incorporated). Antagonist compounds (compounds of this invention) solubilized and serial diluted in 100% DMSO were added in duplicate to cells to yield a final concentration of 1% DMSO (v/v). PBMC were incubated with antagonist compounds for 30 minutes at 37° C., 5% CO2 before adding various TLR agonist reagents in 48 μL complete media per well as follows (final concentrations indicated): CpG ODN 2216 (InvivoGen) at 1 μM for TLR9, ORN 06/LyoVec (InvivoGen) at […] for TLR8 and R848 (InvivoGen) at 1 μg/mL for TLR7 and TLR8. PBMC were incubated overnight at 37° C. with 5% C02. Cell culture supernatants were collected, and levels of various human cytokines were assessed by Luminex assay (ProcartaPlex™ Multiplex Immunoassay, Invitrogen) or ELISA procedure according to the manufacturer's recommended protocol (eBioscience, ThermoFisher Scientific). Viability of the cells was also checked with Cell Viability Assay (CellTiter Glo® Luminescent Cell Viability Assay, Promega).

hERG K+ channel = target: T2, hERG K+ channel (Homo sapiens, UniProt Q12809); assay: hERG channel inhibition assay (patch-clamp, CHO-hERG cells); format: cell-based; details: for IC50 / IC20: CHO-hERG cells, whole-cell patch-clamp; for IC20: human, CHO cells stably expressing hERG; for hERG IC20/TLR7 IC50 / hERG IC20/TLR8 IC50 / hERG IC20/TLR9 IC50: safety ratio
T2 construct: expressed in transfected cells; host or cells: CHO (Chinese hamster ovary)
Method: The hERG K^+ channels were cloned in humans and stably expressed in a CHO (Chinese hamster ovary) cell line. CHOhERG cells were used for patch-clamp (voltage-clamp, whole-cell) experiments. Cells were stimulated by a voltage pattern to activate hERG channels and conduct IKhERG Currents (rapid delayed outward rectifier potassium current of the hERG channel). After the cells were stabilized for a few minutes, the amplitude and kinetics of IKhERG were recorded at a stimulation frequency of 0.1 Hz (6 bpm). Thereafter, the test compound was added to the preparation at increasing concentrations. For each concentration, an attempt was made to reach a steady-state effect, usually, this was achieved within 3-10 min at which time the next highest concentration was applied. The amplitude and kinetics of IKhERG are recorded in each concentration of the drug which were compared to the control values (taken as 100%). (references: Redfe W S, Carlsson L, Davis A S, Lynch W G, MacKenzie I, Palethorpe S, Siegl P K, Strang I, Sullivan A T, Wallis R, Camm A J, Hammond T G. 2003; Relationships between preclinical cardiac electrophysiology, clinical QT interval prolongation and torsade de pointes for a broad range of drugs: evidence for a provisional safety margin in drug development. Cardiovasc. Res. 58:32-45, Sanguinetti M C, Tristani-Firouzi M. 2006; hERG potassium channels and cardiac arrhythmia. Nature 440:463-469, Webster R, Leishman D, Walker D. 2002; Towards a drug concentration effect relationship for QT prolongation and torsades de pointes. Curr. Opin. Drug Discov. Devel. 5:116-26).

T2 sequence (Q12809 whole entry): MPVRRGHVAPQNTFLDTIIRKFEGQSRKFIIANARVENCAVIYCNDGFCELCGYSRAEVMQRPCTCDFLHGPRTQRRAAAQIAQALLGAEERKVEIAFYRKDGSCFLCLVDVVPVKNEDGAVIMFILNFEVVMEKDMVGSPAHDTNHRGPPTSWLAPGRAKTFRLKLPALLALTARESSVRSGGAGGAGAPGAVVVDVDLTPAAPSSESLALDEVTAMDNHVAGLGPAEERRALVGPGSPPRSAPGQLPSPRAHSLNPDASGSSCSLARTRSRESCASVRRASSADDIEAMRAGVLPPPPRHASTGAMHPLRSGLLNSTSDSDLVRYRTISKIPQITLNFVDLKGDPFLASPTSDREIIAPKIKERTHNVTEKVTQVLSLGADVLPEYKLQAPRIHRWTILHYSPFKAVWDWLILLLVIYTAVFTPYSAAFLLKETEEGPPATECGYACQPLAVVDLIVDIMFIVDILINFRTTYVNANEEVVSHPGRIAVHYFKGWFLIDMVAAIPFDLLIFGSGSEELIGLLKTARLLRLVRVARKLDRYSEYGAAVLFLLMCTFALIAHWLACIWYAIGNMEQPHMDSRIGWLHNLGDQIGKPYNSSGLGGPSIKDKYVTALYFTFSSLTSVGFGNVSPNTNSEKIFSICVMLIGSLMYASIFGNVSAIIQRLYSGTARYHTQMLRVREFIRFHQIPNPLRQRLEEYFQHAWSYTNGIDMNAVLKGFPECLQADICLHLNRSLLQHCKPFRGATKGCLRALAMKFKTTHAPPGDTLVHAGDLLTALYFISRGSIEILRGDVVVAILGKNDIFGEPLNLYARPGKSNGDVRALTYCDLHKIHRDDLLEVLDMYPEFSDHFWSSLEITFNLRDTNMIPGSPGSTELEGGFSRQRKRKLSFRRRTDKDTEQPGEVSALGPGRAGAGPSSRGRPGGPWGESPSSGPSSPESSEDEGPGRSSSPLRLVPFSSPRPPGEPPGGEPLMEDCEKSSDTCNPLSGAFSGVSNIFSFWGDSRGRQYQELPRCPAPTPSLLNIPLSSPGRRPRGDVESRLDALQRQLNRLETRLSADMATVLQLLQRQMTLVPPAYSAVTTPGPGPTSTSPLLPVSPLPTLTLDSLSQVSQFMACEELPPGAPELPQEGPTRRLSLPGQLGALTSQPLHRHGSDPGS

Row | Structure (SMILES) | IC50 (TLR9) [nM] | IC50 (hERG K+ channel) [nM] | IC20 (hERG K+ channel) [nM] | hERG IC20/TLR7 IC50 (hERG K+ channel) | hERG IC20/TLR8 IC50 (hERG K+ channel) | hERG IC20/TLR9 IC50 (hERG K+ channel)
1 | Cc1cc(N2CCNCC2)ncc1C1CCN(c2ccnc3c2cnn3C)CC1 [Example 6, 1-methyl-4-[4-(4-methyl-6-piperazin-1-yl-3-pyridyl)-1-piperidyl]pyrazolo[3,4-b]pyridine] | 617 | > 10000 | 4400 | 628.6 | 118.9 | 21.2
2 | Cc1cc(N2CC[C@H](c3ccc(N4CCOC[C@@H](N)C4)cn3)[C@@H](C)C2)c2cnn(C)c2n1 [Example 40, (6S)-4-[6-[(3R,4S)-1-(1,6-dimethylpyrazolo[3,4-b]pyridin-4-yl)-3-methyl-4-piperidyl]-3-pyridyl]-1,4-oxazepan-6-amine] | 540 | > 20000 | 5900 | 655.6 | 842.9 | 34.1
3 | Cc1cc(N2CC[C@H](c3ccc(N4CCNCC4)cn3)[C@@H](C)C2)c2cnn(C)c2n1 [Example 35, 1,6-dimethyl-4-[(3R,4S)-3-methyl-4-(5-piperazin-1-yl-2-pyridyl)-1-piperidyl]pyrazolo[3,4-b]pyridine] | 870 | > 10000 | 4400 | 733.3 | 488.9 | 27.8
4 | COC[C@H]1CN(c2cnc([C@@H]3CCN(c4cc(C)nc5c4cnn5C)C[C@H]3C)c(C)c2)CCN1 [Example 29, 4-[(3S,4R)-4-[5-[(3R)-3-(methoxymethyl)piperazin-1-yl]-3-methyl-2-pyridyl]-3-methyl-1-piperidyl]-1,6-dimethyl-pyrazolo[3,4-b]pyridine] | 710 | > 10000 | 4400 | 880.0 | 550.0 | 18.5
5 | Cc1cc(N2CCC(c3cnc(N4CCNCC4)cc3C)[C@H](C)C2)c2cnn(C)c2n1 (single isomer, unassigned) [Example 21, 1,6-dimethyl-4-[trans-3-methyl-4-(4-methyl-6-piperazin-1-yl-3-pyridyl)-1-piperidyl]pyrazolo[3,4-b]pyridine] | 848 |  |  |  |  | 
6 | Cc1cc(N2CC[C@@H](c3ncc(N4CCOC[C@@H](N)C4)cc3C)[C@H](C)C2)c2cnn(C)c2n1 [Example 28, (6S)-4-[6-[(3S,4R)-1-(1,6-dimethylpyrazolo[3,4-b]pyridin-4-yl)-3-methyl-4-piperidyl]-5-methyl-3-pyridyl]-1,4-oxazepan-6-amine] | 520 | > 20000 | 6400 | 914.3 | 3200.0 | 50.8

Compounds with a lower IC50 (TLR9), results first:

Row | IC50 (TLR9) [nM] | Structure (SMILES) | IC50 (hERG K+ channel) [nM] | IC20 (hERG K+ channel) [nM] | hERG IC20/TLR7 IC50 (hERG K+ channel) | hERG IC20/TLR8 IC50 (hERG K+ channel) | hERG IC20/TLR9 IC50 (hERG K+ channel)
7 | 470 | Cc1cc(N2CC[C@H](c3ccc(N4CC(C)(N)C4)cn3)[C@@H](C)C2)c2cnn(C)c2n1 [Example 43, 1-[6-[(3R,4S)-1-(1,6-dimethylpyrazolo[3,4-b]pyridin-4-yl)-3-methyl-4-piperidyl]-3-pyridyl]-3-methyl-azetidin-3-amine] | > 20000 | > 10000 | >625.0 | >1666.7 | >49.3
8 | 470 | Cc1cc(N2CCC(c3ccc(N4CCNCC4)cn3)CC2)c2cnn(C)c2n1 [Example 2, 1,6-dimethyl-4-[4-(5-piperazin-1-yl-2-pyridyl)-1-piperidyl]pyrazolo[3,4-b]pyridine] | > 20000 | > 10000 | >370.4 | >476.2 | >70.4
9 | 380 | Cc1cc(N2CC[C@@H](c3ncc(N4CC5(CNCCO5)C4)cc3C)[C@H](C)C2)c2cnn(C)c2n1 [Example 27, 2-[6-[(3S,4R)-1-(1,6-dimethylpyrazolo[3,4-b]pyridin-4-yl)-3-methyl-4-piperidyl]-5-methyl-3-pyridyl]-5-oxa-2,8-diazaspiro[3.5]nonane] |  |  |  |  | 
10 | 340 | COc1cc(N2CCNCC2)cnc1C1CCN(c2cc(C)nc3c2cnn3C)CC1 [Example 14, 4-[4-(3-methoxy-5-piperazin-1-yl-2-pyridyl)-1-piperidyl]-1,6-dimethyl-pyrazolo[3,4-b]pyridine] |  |  |  |  | 
11 | 330 | CO[C@@H]1CN(c2cnc([C@@H]3CCN(c4cc(C)nc5c4cnn5C)C[C@H]3C)c(C)c2)C[C@H]1N [Example 26, (3R,4R)-1-[6-[(3S,4R)-1-(1,6-dimethylpyrazolo[3,4-b]pyridin-4-yl)-3-methyl-4-piperidyl]-5-methyl-3-pyridyl]-4-methoxy-pyrrolidin-3-amine] | > 20000 | > 10000 | >833.3 | >714.3 | >91.7
12 | 410 | Cc1cc(N2CC[C@@H](c3ncc(N4CC[C@@H](N)[C@H](F)C4)cc3C)[C@H](C)C2)c2cnn(C)c2n1 [Example 31, (3R,4R)-1-[6-[(3S,4R)-1-(1,6-dimethylpyrazolo[3,4-b]pyridin-4-yl)-3-methyl-4-piperidyl]-5-methyl-3-pyridyl]-3-fluoro-piperidin-4-amine] |  |  |  |  | 
13 | 420 | Cc1cc(N2CCC(c3ncc(N4CCNCC4)cc3C)CC2)c2cnn(C)c2n1 [Example 7, 1,6-dimethyl-4-[4-(3-methyl-5-piperazin-1-yl-2-pyridyl)-1-piperidyl]pyrazolo[3,4-b]pyridine] | > 20000 | 5100 | 463.6 | 175.9 | 98.1
